Assays:
AtzB_Hom_Hal = biological target: T1, AtzB_Hom_Hal (Mangrovimicrobium sediminis, UniProt A0A4Z0M5D5); experiment: direct photometric steady-state assay, spectrophotometer; type: biochemical; details: 50 mM potassium phosphate pH 7.5, 25 °C
T1 sequence (A0A4Z0M5D5 1-465): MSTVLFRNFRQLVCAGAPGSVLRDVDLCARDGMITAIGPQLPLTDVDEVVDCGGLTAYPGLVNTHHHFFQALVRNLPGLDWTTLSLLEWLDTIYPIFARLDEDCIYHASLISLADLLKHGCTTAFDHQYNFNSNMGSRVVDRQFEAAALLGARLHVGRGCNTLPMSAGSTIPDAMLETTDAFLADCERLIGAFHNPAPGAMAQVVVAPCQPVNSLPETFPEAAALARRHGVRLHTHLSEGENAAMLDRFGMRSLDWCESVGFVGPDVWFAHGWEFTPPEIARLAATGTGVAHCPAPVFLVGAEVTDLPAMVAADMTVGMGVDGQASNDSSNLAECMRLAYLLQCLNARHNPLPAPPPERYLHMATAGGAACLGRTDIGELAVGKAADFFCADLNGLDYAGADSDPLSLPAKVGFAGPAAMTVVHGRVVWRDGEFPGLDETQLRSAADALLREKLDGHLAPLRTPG

AtzB = biological target: T2, AtzB (Pseudomonas sp. ADP, UniProt P95442); experiment: as above; type: biochemical; details: 50 mM potassium phosphate pH 7.5, 25 °C
T2 sequence (P95442 1-481): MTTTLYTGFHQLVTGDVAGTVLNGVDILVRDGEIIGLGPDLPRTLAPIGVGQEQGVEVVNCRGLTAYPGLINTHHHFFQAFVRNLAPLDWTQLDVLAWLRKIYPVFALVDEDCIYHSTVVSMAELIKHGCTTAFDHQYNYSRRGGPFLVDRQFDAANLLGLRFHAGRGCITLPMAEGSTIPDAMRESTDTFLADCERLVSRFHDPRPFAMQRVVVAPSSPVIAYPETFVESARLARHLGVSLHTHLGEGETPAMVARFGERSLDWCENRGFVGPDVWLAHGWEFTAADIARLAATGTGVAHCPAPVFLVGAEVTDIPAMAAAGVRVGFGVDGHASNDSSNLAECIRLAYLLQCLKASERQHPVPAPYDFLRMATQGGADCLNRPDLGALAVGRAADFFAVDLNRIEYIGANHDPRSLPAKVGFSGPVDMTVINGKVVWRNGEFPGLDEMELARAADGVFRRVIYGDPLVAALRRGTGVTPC

| Compound | KM (AtzB_Hom_Hal) | kcat/KM (AtzB) |
| --- | --- | --- |
| CCNc1nc(O)nc(NC(C)C)n1 [II, hydroxyatrazine] | promiscuous hydroxyatrazine hydrolase activities of AtzB_Hom_Hal and AtzB_Hom_Pleo | – |
| Nc1nc2[nH]cnc2c(=O)[nH]1 [guanine] | – | represents an increase of about three orders of magnitude compared to AtzB |
